Tested on: whole blood
Experiment: ROTEM whole blood coagulation with rabbit brain-derived tissue thromboplastin (TP) + Ca 12 mM (CTI 20 μg/mL, PKSI-527 40 μM where stated)
Type: cell-based
[1] = Ex11, TP 16.6 μg/mL+Ca+CTI+PKSI-527, heparan sulfate 1 μg/mL, no rTM
[2] = Ex11, TP 16.6 μg/mL+Ca+CTI+PKSI-527, heparan sulfate 1 μg/mL, rTM 50 μM (title: 50 nM)
[3] = Ex11, TP 16.6 μg/mL+Ca+CTI+PKSI-527, heparan sulfate 3 μg/mL, no rTM
[4] = Ex11, TP 16.6 μg/mL+Ca+CTI+PKSI-527, heparan sulfate 3 μg/mL, rTM 50 μM (title: 50 nM)
[5] = Ex11, TP 16.6 μg/mL+Ca+CTI+PKSI-527, heparan sulfate 10 μg/mL, no rTM
[6] = Ex11, TP 16.6 μg/mL+Ca+CTI+PKSI-527, heparan sulfate 10 μg/mL, rTM 50 μM (title: 50 nM)
[7] = Ex11, TP 16.6 μg/mL+Ca+CTI+PKSI-527, heparan sulfate 15 μg/mL, no rTM
[8] = Ex11, TP 16.6 μg/mL+Ca+CTI+PKSI-527, heparan sulfate 15 μg/mL, rTM 50 μM (title: 50 nM)
[9] = Ex11, TP 16.6 μg/mL+Ca+CTI+PKSI-527, heparan sulfate 20 μg/mL, no rTM
[10] = Ex11, TP 16.6 μg/mL+Ca+CTI+PKSI-527, heparan sulfate 20 μg/mL, rTM 50 μM (title: 50 nM)
[11] = Ex11, TP 16.6 μg/mL+Ca+CTI+PKSI-527, heparan sulfate 30 μg/mL, no rTM
[12] = Ex11, TP 16.6 μg/mL+Ca+CTI+PKSI-527, heparan sulfate 30 μg/mL, rTM 50 μM (title: 50 nM)
[13] = Ex12, TP 16.6 μg/mL+Ca+CTI+PKSI-527, heparan sulfate 5 μg/mL, no rTM
[14] = Ex12, TP 16.6 μg/mL+Ca+CTI+PKSI-527, heparan sulfate 5 μg/mL, rTM 100 μM (title: 100 nM)
[15] = Ex13, TP 0.033 μg/mL+Ca+CTI+PKSI-527, heparan sulfate 0.5 μg/mL, no rTM
[16] = Ex13, TP 0.033 μg/mL+Ca+CTI+PKSI-527, heparan sulfate 0.5 μg/mL, rTM 9 μM (title: 9 nM)
[17] = Ex14, TP 0.033 μg/mL+Ca+CTI+PKSI-527, heparan sulfate 0.1 μg/mL, no rTM
[18] = Ex14, TP 0.033 μg/mL+Ca+CTI+PKSI-527, heparan sulfate 0.1 μg/mL, rTM 10 nM
[19] = Ex14, TP 0.033 μg/mL+Ca+CTI+PKSI-527, heparan sulfate 0.2 μg/mL, no rTM
[20] = Ex14, TP 0.033 μg/mL+Ca+CTI+PKSI-527, heparan sulfate 0.2 μg/mL, rTM 10 nM
[21] = Ex14, TP 0.033 μg/mL+Ca+CTI+PKSI-527, heparan sulfate 0.3 μg/mL, no rTM
[22] = Ex14, TP 0.033 μg/mL+Ca+CTI+PKSI-527, heparan sulfate 0.3 μg/mL, rTM 10 nM
[23] = Ex14, TP 0.033 μg/mL+Ca+CTI+PKSI-527, heparan sulfate 0.4 μg/mL, no rTM
[24] = Ex14, TP 0.033 μg/mL+Ca+CTI+PKSI-527, heparan sulfate 0.4 μg/mL, rTM 10 nM
[25] = Ex14, TP 0.033 μg/mL+Ca+CTI+PKSI-527, heparan sulfate 0.5 μg/mL, no rTM
[26] = Ex14, TP 0.033 μg/mL+Ca+CTI+PKSI-527, heparan sulfate 0.5 μg/mL, rTM 10 nM
[27] = Ex15, TP 0.033 μg/mL+Ca+CTI+PKSI-527, heparan sulfate 0.1 μg/mL, no rTM
[28] = Ex15, TP 0.033 μg/mL+Ca+CTI+PKSI-527, heparan sulfate 0.1 μg/mL, rTM 5 nM
[29] = Ex15, TP 0.033 μg/mL+Ca+CTI+PKSI-527, heparan sulfate 0.2 μg/mL, no rTM

Q: With Heparan sulfate as the substance, how does the “clotting time (CT)” value (Ex3/Ex9, TP 0.9 μg/mL+Startem, heparan sulfate 1 μg/mL, rTM 20 nM) read?
A: 319 s

Q: What about the “clotting time (CT)” value (Ex4, TP 0.9 μg/mL+Ca+CTI+PKSI-527, heparan sulfate 1 μg/mL, no rTM) of the same substance?
A: 162 s

Q: And the “clotting time (CT)” value (Ex9, TP 0.9 μg/mL+Startem, heparan sulfate 1 μg/mL, no rTM)?
A: 154 s

Q: What about the “clotting time (CT)” value (Ex10, TP 0.45 μg/mL+Startem, heparan sulfate 1 μg/mL, no rTM) of the same substance?
A: 251 s

Q: And the “CFT (clot formation time)” value [1]?
A: 93 s

Q: And the “CT (clotting time)” value [1]?
A: 58 s

Q: And the “CFT (clot formation time)” value [2]?
A: 72 s

Q: And the “CT (clotting time)” value [2]?
A: 55 s

Q: What about the “CFT (clot formation time)” value [3] of the same substance?
A: 93 s

Q: And the “CT (clotting time)” value [3]?
A: 62 s

Q: What about the “CFT (clot formation time)” value [4] of the same substance?
A: 73 s

Q: What about the “CT (clotting time)” value [4] of the same substance?
A: 62 s

Q: And the “CFT (clot formation time)” value [5]?
A: 55 s

Q: And the “CT (clotting time)” value [5]?
A: 94 s

Q: And the “CFT (clot formation time)” value [6]?
A: 95 s

Q: What about the “CT (clotting time)” value [6] of the same substance?
A: 143 s

Q: What about the “CFT (clot formation time)” value [7] of the same substance?
A: 66 s

Q: What about the “CT (clotting time)” value [7] of the same substance?
A: 120 s

Q: What about the “CFT (clot formation time)” value [8] of the same substance?
A: 255 s

Q: What about the “CT (clotting time)” value [8] of the same substance?
A: 255 s

Q: And the “CFT (clot formation time)” value [9]?
A: 61 s

Q: And the “CT (clotting time)” value [9]?
A: 144 s

Q: And the “CFT (clot formation time)” value [10]?
A: No CFT

Q: And the “CT (clotting time)” value [10]?
A: No CT

Q: And the “CFT (clot formation time)” value [11]?
A: 69 s

Q: What about the “CT (clotting time)” value [11] of the same substance?
A: 193 s

Q: And the “CFT (clot formation time)” value [12]?
A: No CFT

Q: And the “CT (clotting time)” value [12]?
A: No CT

Q: What about the blood clotting time (Ex11, TP 16.6 μg/mL+Ca+CTI+PKSI-527, heparan sulfate 20 or 30 μg/mL, rTM 50 nM) of the same substance?
A: ≥ 1 h

Q: What about the “CFT (clot formation time)” value [13] of the same substance?
A: 76 s

Q: What about the “CT (clotting time)” value [13] of the same substance?
A: 65 s

Q: And the “CFT (clot formation time)” value [14]?
A: 69 s

Q: And the “CT (clotting time)” value [14]?
A: 96 s

Q: What about the “CFT (clot formation time)” value [15] of the same substance?
A: 248 s

Q: What about the “CT (clotting time)” value [15] of the same substance?
A: 837 s

Q: And the “CFT (clot formation time)” value [16]?
A: 1484 s

Q: And the “CT (clotting time)” value [16]?
A: 1355 s

Q: And the “CFT (clot formation time)” value [17]?
A: 182 s

Q: What about the “CT (clotting time)” value [17] of the same substance?
A: 572 s

Q: And the “CFT (clot formation time)” value [18]?
A: 240 s

Q: And the “CT (clotting time)” value [18]?
A: 797 s

Q: And the “CFT (clot formation time)” value [19]?
A: 224 s

Q: What about the “CT (clotting time)” value [19] of the same substance?
A: 686 s

Q: What about the “CFT (clot formation time)” value [20] of the same substance?
A: 215 s

Q: What about the “CT (clotting time)” value [20] of the same substance?
A: 829 s

Q: What about the “CFT (clot formation time)” value [21] of the same substance?
A: 171 s

Q: And the “CT (clotting time)” value [21]?
A: 688 s

Q: What about the “CFT (clot formation time)” value [22] of the same substance?
A: 290 s

Q: And the “CT (clotting time)” value [22]?
A: 802 s

Q: And the “CFT (clot formation time)” value [23]?
A: 206 s

Q: And the “CT (clotting time)” value [23]?
A: 762 s

Q: What about the “CFT (clot formation time)” value [24] of the same substance?
A: 733 s

Q: And the “CT (clotting time)” value [24]?
A: 1360 s

Q: What about the “CFT (clot formation time)” value [25] of the same substance?
A: 248 s

Q: And the “CT (clotting time)” value [25]?
A: 837 s

Q: What about the “CFT (clot formation time)” value [26] of the same substance?
A: 660 s

Q: And the “CT (clotting time)” value [26]?
A: 1266 s

Q: What about the “CFT (clot formation time)” value [27] of the same substance?
A: 182 s

Q: And the “CT (clotting time)” value [27]?
A: 572 s

Q: What about the “CFT (clot formation time)” value [28] of the same substance?
A: 230 s

Q: What about the “CT (clotting time)” value [28] of the same substance?
A: 711 s

Q: And the “CFT (clot formation time)” value [29]?
A: 224 s

Q: What about the “CT (clotting time)” value [29] of the same substance?
A: 686 s

Q: And the “CFT (clot formation time)” value (Ex15, TP 0.033 μg/mL+Ca+CTI+PKSI-527, heparan sulfate 0.2 μg/mL, rTM 5 nM)?
A: 209 s

— patent publication US20240060999A1, “BLOOD COAGULATION INSPECTION METHOD” (FUJIMORI KOGYO CO., LTD, priority 2020, published 2024)
